74 compounds from PubChem BioAssay AID504765 (Sanford-Burnham Center for Chemical Genomics, 2011) can be followed below.

This experiment addresses glucose-6-phosphate dehydrogenase-6-phosphogluconolactonase (Plasmodium falciparum 3D7). As to the kind of experiment: PfG6PD inhibitor potency, dose response, biochemical, fluorescence intensity (AID 504765). Conditions: Recombinant PfG6PD enzyme, fluorescence intensity (NADPH).

Active and inactive are the calls of the source. How the calls were made is not given here.

One may read the IC50 as the midpoint of a concentration-inhibition curve. For the compound `Oc1ccc(C2C[C@H]3CC[C@@H]2C3)cc1O` (some centres undefined), the IC50 is 5.71 µM.
For `CC(=O)Nc1ccc2c(c1)Cc1cc(N3C(=O)C=CC3=O)ccc1-2` the value was 19.3 µM.
For the compound `CC(Cc1ccc(O)c(O)c1)C(C)Cc1ccc(O)c(O)c1` (centres undefined), the IC50 entry was “inactive”.
As to `CCc1ccccc1N1CSC2=C(C#N)C(c3ccccc3F)CC(=O)N2C1` (centres undefined), the IC50 was 9.2 µM.
For `Cc1nc2ccc(Nc3nc4cc(S(=O)(=O)N5CCOCC5)ccc4o3)cc2s1` the value was “inactive”; for `O=C(O)CSc1cc(NS(=O)(=O)c2ccc(Cl)cc2)c2ccccc2c1O`, 4.17 µM; for `Cc1ccc(S(=O)(=O)SC/C=C/CSS(=O)(=O)c2ccc(C)cc2)cc1`, 10.3 µM.
With `C=CCSc1nc2sc3c(c2c(=O)n1CC)CCc1ccccc1-3` the entry was “inactive”; with `CCN(CC)c1ccc(NC(=O)c2cccc(C)c2)cc1S(=O)(=O)Nc1ccccc1OC`, “inactive”; with `Cc1ccc(NC(=O)c2ccc(Cl)c(N3C(=O)C=CC3=O)c2)cc1`, 7.52 µM.
With `O=S(=O)(Nc1ccc(Cl)cc1)c1ccc(N2CCOCC2)c(NC(=S)NCCN2CCOCC2)c1` the figure was 15.1 µM.
`O=S(=O)(Nc1c(O)ccc2ccccc12)c1ccccc1`: the IC50 is 4.49 µM.
For `Cc1cc(C)nc(NC(N)=NCCc2ccccc2)n1` the value was 15 µM; for `Cc1ccc(/C=C/C(=O)NCCc2cccc(Cl)c2)o1`, 7.59 µM; for `O=c1c2ccccc2sn1-c1ccc(S(=O)(=O)N2CCCC2)cc1`, 6.88 µM.
For `O=C1Nc2ccccc2C(=O)C1(Cl)Cc1ccccc1` (centres undefined) the value was 9.57 µM; for `COc1ccc(Nc2cc(C)c3c(O)cccc3n2)cc1`, 5.06 µM; for `CCc1cc(-c2n[nH]c(C)c2-c2nc3ccccc3n2C)c(O)cc1O`, “inactive”.
For `CC(C)(C)c1ccc(C(=O)Nc2sc3c(c2C(=O)O)CCC3)cc1` the value was 12.7 µM; for `COc1cc(N)c2ncsc2c1`, 15.5 µM.
For `Cc1nnc(N/N=C\c2ccc(-c3cccc(C(=O)O)c3)o2)n1N`, the IC50 is 4.75 µM.
For `COc1cc(N2C(=O)C=CC2=O)ccc1N1C(=O)C=CC1=O` the value was 4.43 µM.
For `[O-]/[N+](=C/c1cccnc1)c1ccc(Br)cc1` the value was 1.11 µM; for `CN(CCO)c1cc(Sc2nc3ccccc3s2)c2nonc2c1[N+](=O)[O-]`, 11.1 µM.
With `Cc1ccc(Cl)cc1NC1=C/C(=N\S(=O)(=O)c2cccs2)c2ccccc2C1=O` the entry was “inactive”.
For the compound `Cc1ccc(-c2nc(N3CCOCC3)s[n+]2-c2ccccc2)cc1`, the IC50 was 5.65 µM.
With `CC1CN(c2ccccc2)NC1=O` (centres undefined) the figure was 2.34 µM; with `O=c1[nH]c2ccccc2n2c(-c3ccccc3)nnc12`, 1.65 µM; with `COc1cc(C(=O)O/N=C2\C=CC(=O)C=C2C)cc(OC)c1OC`, 14.1 µM.
As to `CCN(CC)CCNC(=O)CCCCn1c(=S)[nH]c2c([nH]c3ccc(OC)cc32)c1=O`, the IC50 entry was “inactive”.
Consider `O=S(=O)(Nc1cccc2cccnc12)c1ccccc1`, for which the IC50 was 7.08 µM.
For `Oc1cc(CNCc2ccccc2)c(O)cc1CNCc1ccccc1` the value was 3.36 µM; for `COc1cc(/C=N/Nc2nncn2N)ccc1OCc1c(C)no[n+]1[O-]`, 8.92 µM; for `O=c1c2ccccc2sn1-c1ccc(S(=O)(=O)N2CCCCC2)cc1`, 7.2 µM.
For `Oc1ccc(/C=N/N=C(c2ccccc2)c2ccccc2)c(O)c1O` the value was 13.6 µM; for `COc1cccc(CNc2ccc3[nH]c(=O)[nH]c3c2)c1OCc1ccccc1Cl`, “inactive”.
With `Nc1c(C(=O)Nc2ccc(F)cc2)sc(=S)n1-c1ccccc1F` the figure was 8.31 µM; with `C=CCc1ccccc1OCC(=O)N/N=C/c1ccccc1OCC`, 6.34 µM.
In the case of `CCOc1ccccc1NC(=O)CCCc1nc2ccccc2c(=O)[nH]1`, the IC50 was 7.4 µM.
As to `Cc1cc(C)c2c(=O)n(CC(=O)Nc3cccc(Cl)c3C)sc2n1`, the concentration for half-maximal inhibition (IC50) was 5.51 µM.
With `OCCN1CCN(C(=S)c2ccc(Cl)c(Cl)c2)CC1` the figure was 12.5 µM; with `O=C(CCl)NCCN1C(=O)S/C(=C\c2cccnc2)C1=O`, 9.89 µM.
With `COc1cc(OC)c(C2CC(=O)N3CN(c4ccccc4)CSC3=C2C#N)cc1OC` (centres undefined) the figure was 11.5 µM.
With `CN(C)c1ccc2nc3ccc(=O)cc-3sc2c1` the figure was 13.2 µM; with `CCN1CCCC1CNC(=O)c1ccc2c(c1)NC(=O)/C(=C\c1ccc(C)cc1)S2` (centres undefined), 3.16 µM; with `c1ccc(SSc2ccccn2)nc1`, 9.82 µM.
Take `C=CCSc1nnc(NC(=O)c2ccc(Cl)nc2)s1`: the IC50 is 4.05 µM.
For `Cc1cc(C)c2c(=O)n(CC(=O)N3CCC(N4CCCCC4)CC3)sc2n1` the value was 3.88 µM; for `CCN1CCCC1CNC(=O)c1ccc2c(c1)NC(=O)/C(=C\c1ccccc1F)S2` (centres undefined), 1.96 µM.
For `CNS(=O)(=O)c1ccc(-c2ccc(C=C3C(=O)NC(=O)NC3=O)o2)cc1` the value was 8.75 µM; for `CC(=O)Nc1cc(OC(C)=O)c2nonc2c1OC(C)=O`, 11.9 µM.
Turning to `Cn1c(=O)[nH]c(=O)c2c1[nH]c(=S)n2CCCc1ccccc1`, the IC50 entry was “inactive”.
For the compound `CC1=CC(=NOC(=O)/C=C/c2ccccc2)C=C(C)C1=O`, the IC50 is 13.9 µM.
For `COc1cc(N)c2ncccc2c1Cl` the value was 6.92 µM; for `COc1cc(-c2cc(OC)c(O)c(OC)c2)cc(OC)c1O`, 8.29 µM.
Consider `O=C(Nc1ccccc1C(=O)N/N=C/c1ccco1)c1ccccc1Cl`, for which the IC50 was 10.6 µM.
With `Cn1sc2ccccc2c1=O` the figure was 5.82 µM; with `COc1ccc(CNC(=O)Cc2cn(C)c3ccccc23)c(OC)c1`, 6.8 µM; with `CCCn1cc(S(=O)(=O)CC(=O)Nc2ccc(OC)cc2OC)c2ccccc21`, 7.87 µM.
In the case of `NS(=O)(=O)c1ccc(N/N=C/c2ccc(O)c(O)c2O)c([N+](=O)[O-])c1`, the IC50 was 5.7 µM.
With `O=C(Nc1ccc([N+](=O)[O-])cc1Cl)c1cc(Cl)ccc1O` the figure was 13.7 µM; with `CCN1CCN(C(=S)c2ccc(O)cc2)CC1`, “inactive”.
For `CN1CCN(C(=S)c2ccc([N+](=O)[O-])cc2)CC1` the value was “inactive”.
For `Cc1ccc(NC2=C(NC(=O)c3ccccc3)C(=O)c3ccccc3C2=O)cc1Cl` the value was 10.2 µM; for `COc1cc(N=c2ssnc2Cl)cc(OC)c1OC`, 15.5 µM; for `CN(C)S(=O)(=O)c1cccc(-n2sc3ccccc3c2=O)c1`, 2.08 µM.
As to `Cc1nn(-c2ccccc2)c(Cl)c1/C=N/Nc1nc2ccccc2n1C`, the IC50 is 13.3 µM.
For `C(=N\Nc1nc2ccccc2[nH]1)/c1ccccn1` the value was 5.24 µM; for `Cc1ccc(CNc2ccc(O)cc2)cc1`, 8.8 µM.
For `COc1cc(/C=C2\CC/C(=C\c3cc(OC)c(O)c(OC)c3)C2=O)cc(OC)c1O` the value was 17.1 µM.
For `CCOC(=O)c1ccc(-n2c(N)c(C(=O)NCC3CCCO3)sc2=S)cc1` (centres undefined) the value was “inactive”; for `CN1CCN(C(=S)C(=O)Nc2ccc(Br)cc2)CC1`, 7.26 µM; for `CN(C)c1cccc2c1c(NC(=O)c1ccc(F)cc1)nn2C`, 19.2 µM.
On to `CN(C)c1ccc(C=c2c3cc(O)ccc3n3c2cc(-c2ccccc2)[n+]3C)cc1`, for which the IC50 is 9.89 µM.
